The source of these data is ChEMBL document CHEMBL5696442, “Discovery of type II inhibitors of TGFβ-activated kinase 1 (TAK1) and mitogen-activated protein kinase kinase kinase kinase 2 (MAP4K2)” (J Med Chem, 2015).

A short description of test [1]: Inhibition of p70S6K Lys2 labeling site in human A-375 cells at 0.5 uM by KiNativ Profiling analysis relative to control. To be noted: condition cancer.
Test [2] deals with T1, Myotonin-protein kinase (Homo sapiens) (UniProt Q09013).
T1 sequence (whole entry): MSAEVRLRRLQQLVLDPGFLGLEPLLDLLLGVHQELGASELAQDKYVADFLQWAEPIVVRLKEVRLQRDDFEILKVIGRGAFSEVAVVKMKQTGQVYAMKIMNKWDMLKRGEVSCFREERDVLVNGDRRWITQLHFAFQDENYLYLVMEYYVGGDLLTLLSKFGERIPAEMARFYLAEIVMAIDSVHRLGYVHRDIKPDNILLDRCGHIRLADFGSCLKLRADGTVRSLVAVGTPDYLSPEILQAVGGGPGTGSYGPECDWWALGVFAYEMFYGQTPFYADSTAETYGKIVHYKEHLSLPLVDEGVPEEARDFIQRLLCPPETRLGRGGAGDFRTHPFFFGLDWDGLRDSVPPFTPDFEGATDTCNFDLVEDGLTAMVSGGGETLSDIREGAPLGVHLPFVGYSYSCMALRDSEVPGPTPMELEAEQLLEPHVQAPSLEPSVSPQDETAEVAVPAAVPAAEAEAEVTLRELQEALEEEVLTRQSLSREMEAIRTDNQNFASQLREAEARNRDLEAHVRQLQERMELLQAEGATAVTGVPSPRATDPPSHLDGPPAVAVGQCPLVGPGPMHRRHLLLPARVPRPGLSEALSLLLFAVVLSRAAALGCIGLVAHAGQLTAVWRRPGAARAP
In words: Inhibition of DMPK (unknown origin) at 1 uM by Ambit Kinomescan binding assay relative to control; values are per cent of control.

The target of test [3] is MAP kinase-interacting serine/threonine-protein kinase 2 (Homo sapiens) (UniProt Q9HBH9). In words: Inhibition of MKNK2 (unknown origin) at 1 uM by Ambit Kinomescan binding assay relative to control; values are per cent of control.
Test [4] deals with T2, Mitogen-activated protein kinase kinase kinase kinase 2 (Homo sapiens) (UniProt Q12851).
T2 sequence (whole entry): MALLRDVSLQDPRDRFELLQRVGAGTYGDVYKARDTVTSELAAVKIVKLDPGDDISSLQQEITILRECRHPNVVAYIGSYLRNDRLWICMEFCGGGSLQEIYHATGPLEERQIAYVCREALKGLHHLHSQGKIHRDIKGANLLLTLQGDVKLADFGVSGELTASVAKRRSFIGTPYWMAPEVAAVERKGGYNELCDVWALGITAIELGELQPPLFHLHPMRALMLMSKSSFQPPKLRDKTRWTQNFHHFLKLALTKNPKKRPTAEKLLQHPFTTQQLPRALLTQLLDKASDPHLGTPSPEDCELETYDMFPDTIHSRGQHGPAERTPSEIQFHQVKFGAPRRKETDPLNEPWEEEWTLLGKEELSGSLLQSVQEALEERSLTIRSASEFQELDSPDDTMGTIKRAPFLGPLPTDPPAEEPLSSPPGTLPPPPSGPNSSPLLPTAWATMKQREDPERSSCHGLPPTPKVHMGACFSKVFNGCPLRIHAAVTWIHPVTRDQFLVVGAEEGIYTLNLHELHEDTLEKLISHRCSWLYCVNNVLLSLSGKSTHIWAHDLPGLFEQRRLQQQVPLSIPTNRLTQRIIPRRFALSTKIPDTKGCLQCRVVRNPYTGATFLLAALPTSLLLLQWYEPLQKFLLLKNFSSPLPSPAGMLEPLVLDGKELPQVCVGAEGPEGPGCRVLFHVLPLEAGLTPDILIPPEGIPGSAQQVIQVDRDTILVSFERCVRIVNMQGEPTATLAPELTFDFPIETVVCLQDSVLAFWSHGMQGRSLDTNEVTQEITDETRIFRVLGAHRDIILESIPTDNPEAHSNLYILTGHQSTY
The experiment in a line: Inhibition of MAP4K2 Lys1 labeling site in human A-375 cells at 5 uM by KiNativ Profiling analysis relative to control. In kind it is cell-based.

For test [5], the target named is T3, Eukaryotic elongation factor 2 kinase (Homo sapiens) (UniProt O00418).
T3 sequence (whole entry): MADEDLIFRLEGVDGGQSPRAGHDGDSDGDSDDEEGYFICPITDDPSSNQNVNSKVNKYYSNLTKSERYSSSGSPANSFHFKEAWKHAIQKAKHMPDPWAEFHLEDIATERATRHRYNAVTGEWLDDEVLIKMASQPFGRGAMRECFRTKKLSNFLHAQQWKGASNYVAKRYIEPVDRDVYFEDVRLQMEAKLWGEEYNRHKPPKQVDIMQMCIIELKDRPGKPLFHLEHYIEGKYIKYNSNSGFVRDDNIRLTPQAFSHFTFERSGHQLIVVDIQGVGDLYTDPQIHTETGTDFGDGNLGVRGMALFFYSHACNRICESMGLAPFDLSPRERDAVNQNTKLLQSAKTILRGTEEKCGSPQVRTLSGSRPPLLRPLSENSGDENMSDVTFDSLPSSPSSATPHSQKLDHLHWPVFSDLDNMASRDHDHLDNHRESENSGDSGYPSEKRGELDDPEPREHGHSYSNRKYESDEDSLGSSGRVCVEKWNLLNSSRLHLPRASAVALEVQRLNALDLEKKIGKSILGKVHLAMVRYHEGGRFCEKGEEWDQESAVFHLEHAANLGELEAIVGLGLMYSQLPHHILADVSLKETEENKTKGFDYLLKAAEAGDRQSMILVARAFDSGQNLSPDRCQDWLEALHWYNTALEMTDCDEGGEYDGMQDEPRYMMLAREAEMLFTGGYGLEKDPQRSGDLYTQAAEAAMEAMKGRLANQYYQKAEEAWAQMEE
In words: Inhibition of eEF2K ATP labeling site in human Huh-7 cell lysate at 1 uM by KiNativ Profiling analysis relative to control. The test is classed as subcellular.

Test [6] concerns the target Serine/threonine-protein kinase 10 (Homo sapiens) (UniProt O94804). In words: Inhibition of LOK Lys2 labeling site harbouring IIHRDLKAGNVLMTLEGDIR in human Huh-7 cell lysate at 1 uM by KiNativ Profiling analysis relative to control. The test is classed as subcellular.
In test [7] the target is MAP/microtubule affinity-regulating kinase 3 (Homo sapiens) (UniProt P27448). The experiment in a line: Inhibition of MARK3 Lys2 labeling site in human Huh-7 cells at 1 uM by KiNativ Profiling analysis relative to control. The test is classed as cell-based.
The target in test [8] is Ribosomal protein S6 kinase alpha-3 (Homo sapiens) (UniProt P51812). In words: Inhibition of RSK2 domain2 Lys2 labeling site harbouring TVEYLHAQGVVHRDLKPSNILYVDESGNPESIR in human Huh-7 cells at 1 uM by KiNativ Profiling analysis relative to control. In kind it is cell-based.

Molecules are shown by their SMILES. Where only a bound is given, the exact number is not on record here.

Chain of Serine/threonine-protein kinase 10 (Homo sapiens) (O94804 whole entry, looked up): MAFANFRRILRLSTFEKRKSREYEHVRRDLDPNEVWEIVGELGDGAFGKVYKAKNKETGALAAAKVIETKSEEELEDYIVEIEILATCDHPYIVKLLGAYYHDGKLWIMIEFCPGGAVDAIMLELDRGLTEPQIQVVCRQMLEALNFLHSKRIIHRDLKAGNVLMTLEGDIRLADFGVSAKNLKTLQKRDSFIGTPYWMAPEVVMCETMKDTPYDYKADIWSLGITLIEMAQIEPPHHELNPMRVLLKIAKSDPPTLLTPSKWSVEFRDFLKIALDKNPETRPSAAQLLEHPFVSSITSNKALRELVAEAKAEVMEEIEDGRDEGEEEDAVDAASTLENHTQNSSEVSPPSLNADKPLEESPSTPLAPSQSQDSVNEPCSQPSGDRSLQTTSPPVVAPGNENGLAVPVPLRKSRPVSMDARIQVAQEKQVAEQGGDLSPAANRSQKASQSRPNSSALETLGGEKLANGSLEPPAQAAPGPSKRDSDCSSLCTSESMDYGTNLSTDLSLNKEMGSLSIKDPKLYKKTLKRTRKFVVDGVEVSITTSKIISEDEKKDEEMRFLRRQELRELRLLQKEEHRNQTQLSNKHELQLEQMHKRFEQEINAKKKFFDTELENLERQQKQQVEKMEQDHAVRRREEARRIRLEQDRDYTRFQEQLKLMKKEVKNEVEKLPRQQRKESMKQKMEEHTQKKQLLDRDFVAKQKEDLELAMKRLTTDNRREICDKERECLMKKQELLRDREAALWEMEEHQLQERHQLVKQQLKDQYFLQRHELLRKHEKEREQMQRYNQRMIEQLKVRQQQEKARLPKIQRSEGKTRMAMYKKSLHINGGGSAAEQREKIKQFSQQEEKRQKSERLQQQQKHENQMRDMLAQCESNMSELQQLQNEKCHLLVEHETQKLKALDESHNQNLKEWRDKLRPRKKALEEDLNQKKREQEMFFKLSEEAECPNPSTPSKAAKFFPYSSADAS
Chain of MAP/microtubule affinity-regulating kinase 3 (Homo sapiens) (P27448 whole entry, looked up, the tested form may be a part): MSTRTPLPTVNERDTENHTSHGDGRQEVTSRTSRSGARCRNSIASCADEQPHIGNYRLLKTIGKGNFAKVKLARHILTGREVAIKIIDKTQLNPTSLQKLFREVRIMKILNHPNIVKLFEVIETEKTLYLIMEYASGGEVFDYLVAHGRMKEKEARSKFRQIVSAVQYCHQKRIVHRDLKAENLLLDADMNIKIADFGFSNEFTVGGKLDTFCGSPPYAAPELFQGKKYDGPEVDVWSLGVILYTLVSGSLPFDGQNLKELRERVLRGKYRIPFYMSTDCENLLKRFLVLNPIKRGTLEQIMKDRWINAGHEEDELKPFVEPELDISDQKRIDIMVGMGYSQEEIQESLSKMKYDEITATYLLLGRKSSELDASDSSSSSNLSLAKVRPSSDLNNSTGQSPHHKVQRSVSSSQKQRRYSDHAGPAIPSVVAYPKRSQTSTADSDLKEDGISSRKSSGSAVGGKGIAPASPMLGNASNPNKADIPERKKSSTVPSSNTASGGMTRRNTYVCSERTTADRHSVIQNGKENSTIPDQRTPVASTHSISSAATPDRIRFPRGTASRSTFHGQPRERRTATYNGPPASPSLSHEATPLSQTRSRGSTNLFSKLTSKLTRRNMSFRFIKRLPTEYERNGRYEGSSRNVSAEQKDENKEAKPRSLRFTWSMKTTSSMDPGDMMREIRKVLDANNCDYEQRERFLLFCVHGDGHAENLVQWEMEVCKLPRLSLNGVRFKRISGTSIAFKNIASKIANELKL
Chain of MAP kinase-interacting serine/threonine-protein kinase 2 (Homo sapiens) (Q9HBH9 whole entry, looked up): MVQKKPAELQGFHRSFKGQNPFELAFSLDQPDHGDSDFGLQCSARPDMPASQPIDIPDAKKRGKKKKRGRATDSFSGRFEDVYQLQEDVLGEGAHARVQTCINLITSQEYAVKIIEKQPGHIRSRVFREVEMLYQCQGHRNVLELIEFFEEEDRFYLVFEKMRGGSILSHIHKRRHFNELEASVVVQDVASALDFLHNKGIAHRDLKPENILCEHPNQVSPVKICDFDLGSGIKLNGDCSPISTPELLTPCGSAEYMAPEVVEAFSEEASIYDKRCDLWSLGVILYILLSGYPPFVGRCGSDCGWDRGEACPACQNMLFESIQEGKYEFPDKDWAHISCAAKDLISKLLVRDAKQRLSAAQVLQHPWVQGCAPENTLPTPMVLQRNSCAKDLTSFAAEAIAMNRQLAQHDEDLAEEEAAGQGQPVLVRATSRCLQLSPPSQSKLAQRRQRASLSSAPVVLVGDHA
Chain of Ribosomal protein S6 kinase alpha-3 (Homo sapiens) (P51812 whole entry, the tested form may be a part): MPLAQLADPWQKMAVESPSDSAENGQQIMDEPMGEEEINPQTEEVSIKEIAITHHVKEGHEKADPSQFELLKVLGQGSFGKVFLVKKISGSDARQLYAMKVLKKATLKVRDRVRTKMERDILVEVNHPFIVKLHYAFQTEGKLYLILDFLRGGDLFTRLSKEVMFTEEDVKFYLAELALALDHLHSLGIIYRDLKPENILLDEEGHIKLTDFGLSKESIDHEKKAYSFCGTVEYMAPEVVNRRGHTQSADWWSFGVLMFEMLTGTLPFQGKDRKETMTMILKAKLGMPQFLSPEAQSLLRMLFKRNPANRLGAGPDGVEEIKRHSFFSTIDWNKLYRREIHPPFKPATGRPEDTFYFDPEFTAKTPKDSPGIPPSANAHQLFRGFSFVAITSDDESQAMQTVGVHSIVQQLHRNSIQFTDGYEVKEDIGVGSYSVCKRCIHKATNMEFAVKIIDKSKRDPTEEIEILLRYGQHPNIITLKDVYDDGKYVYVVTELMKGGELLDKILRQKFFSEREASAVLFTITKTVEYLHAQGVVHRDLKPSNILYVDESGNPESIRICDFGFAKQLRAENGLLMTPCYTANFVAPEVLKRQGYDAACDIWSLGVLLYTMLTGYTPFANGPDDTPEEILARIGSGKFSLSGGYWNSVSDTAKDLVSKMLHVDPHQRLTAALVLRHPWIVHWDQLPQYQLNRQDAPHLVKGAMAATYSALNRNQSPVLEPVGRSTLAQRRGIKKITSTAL

One may read the inhibition as the change of the read-out against control, counted positive when it falls. As a reminder, the residual activity is the activity still measured, relative to the control. A lower residual activity goes with a large loss of activity. As for `CCN1CCN(Cc2ccc(NC(=O)c3ccc(C)c(/C=C/c4cnc5[nH]ccc5c4OC)c3)cc2C(F)(F)F)CC1`, the inhibition at 0.5 µM in test [1] was -32.9%. The residual activity in test [2] came to 100%; in test [3], 48%.
For `CCN1CCN(Cc2ccc(NC(=O)c3ccc(C)c(Oc4ccnc5[nH]ccc45)c3)cc2C(F)(F)F)CC1`, in test [4], the inhibition is > 99.5%.
Turning to `CNc1cc(Oc2cc(C(=O)Nc3cc(N4CCN(C)CC4)cc(C(F)(F)F)c3)ccc2C)ncn1`, the inhibition in test [5] was -3.5%; in test [6], 12.3%; in test [7] it was 11.3%; in test [8], 11.5%.
